Data from PubChem BioAssay (NCI).
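Cells were grown in 96-well plates and exposed to each compound for 48 hours at five concentrations; endpoints were interpolated linearly between bracketing concentrations, or set to the highest concentration if not reached. At the TGI there is no net growth.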

Columns and labels:
Assay in all cases: NCI-60 cell line screen, 48 h
CAKI-1 renal = test system: CAKI-1 renal
M19-MEL melanoma = test system: M19-MEL melanoma
MALME-3M melanoma = test system: MALME-3M melanoma
SK-MEL-28 melanoma = test system: SK-MEL-28 melanoma
SF-295 CNS = test system: SF-295 CNS
HOP-18 NSCLC = test system: HOP-18 NSCLC
CCRF-CEM leukemia = test system: CCRF-CEM leukemia
OVCAR-3 ovarian = test system: OVCAR-3 ovarian
KM20L2 colon = test system: KM20L2 colon
NCI-H23 lung = test system: NCI-H23 lung
SF-539 CNS = test system: SF-539 CNS
NCI-H522 lung = test system: NCI-H522 lung
U251 CNS = test system: U251 CNS
HL-60(TB) leukemia = test system: HL-60(TB) leukemia
HOP-92 NSCLC = test system: HOP-92 NSCLC
786-0 renal = test system: 786-0 renal
OVCAR-8 ovarian = test system: OVCAR-8 ovarian
A498 renal = test system: A498 renal
SK-MEL-2 melanoma = test system: SK-MEL-2 melanoma
NCI-H460 lung = test system: NCI-H460 lung
RXF 393 renal = test system: RXF 393 renal
MOLT-4 leukemia = test system: MOLT-4 leukemia
SNB-19 CNS = test system: SNB-19 CNS
HOP-62 NSCLC = test system: HOP-62 NSCLC
SN12C renal = test system: SN12C renal
DMS 273 small cell lung = test system: DMS 273 small cell lung
ACHN renal = test system: ACHN renal
DMS 114 small cell lung = test system: DMS 114 small cell lung
LXFL 529 NSCLC = test system: LXFL 529 NSCLC
UO-31 renal = test system: UO-31 renal
RPMI-8226 leukemia = test system: RPMI-8226 leukemia
OVCAR-4 ovarian = test system: OVCAR-4 ovarian
M14 melanoma = test system: M14 melanoma
IGROV1 ovarian = test system: IGROV1 ovarian
COLO 205 colon = test system: COLO 205 colon
HCT-116 colon = test system: HCT-116 colon
LOX IMVI melanoma = test system: LOX IMVI melanoma
UACC-62 melanoma = test system: UACC-62 melanoma
HT29 colon = test system: HT29 colon
XF 498 CNS = test system: XF 498 CNS
HCC-2998 colon = test system: HCC-2998 colon
HCT-15 colon = test system: HCT-15 colon
KM12 colon = test system: KM12 colon
OVCAR-5 ovarian = test system: OVCAR-5 ovarian
A549 NSCLC = test system: A549 NSCLC
K-562 leukemia = test system: K-562 leukemia
EKVX NSCLC = test system: EKVX NSCLC
SK-MEL-5 melanoma = test system: SK-MEL-5 melanoma
DLD-1 colon = test system: DLD-1 colon
SNB-75 CNS = test system: SNB-75 CNS
SNB-78 CNS = test system: SNB-78 CNS
TK-10 renal = test system: TK-10 renal
SF-268 CNS = test system: SF-268 CNS
UACC-257 melanoma = test system: UACC-257 melanoma
SK-OV-3 ovarian = test system: SK-OV-3 ovarian
SW-620 colon = test system: SW-620 colon
NCI-H226 lung = test system: NCI-H226 lung
SR leukemia = test system: SR leukemia

## Cc1cc(NS(=O)(=O)c2ccc(NC(=O)c3cccc4c(Nc5ccc(S(=O)(=O)Nc6cc(C)on6)cc5)c5ccc(Cl)cc5nc34)cc2)no1
CAKI-1 renal
  TGI: > 100 µM
M19-MEL melanoma
  TGI: > 100 µM
MALME-3M melanoma
  TGI: > 100 µM
SK-MEL-28 melanoma
  TGI: > 100 µM
SF-295 CNS
  TGI: > 100 µM
HOP-18 NSCLC
  TGI: > 100 µM
CCRF-CEM leukemia
  TGI: > 100 µM
OVCAR-3 ovarian
  TGI: > 100 µM
KM20L2 colon
  TGI: > 100 µM
NCI-H23 lung
  TGI: > 100 µM
SF-539 CNS
  TGI: > 100 µM
NCI-H522 lung
  TGI: > 100 µM
U251 CNS
  TGI: > 100 µM
HL-60(TB) leukemia
  TGI: > 100 µM
HOP-92 NSCLC
  TGI: 80.5 µM
786-0 renal
  TGI: > 100 µM
OVCAR-8 ovarian
  TGI: > 100 µM
A498 renal
  TGI: > 100 µM
SK-MEL-2 melanoma
  TGI: > 100 µM
NCI-H460 lung
  TGI: > 100 µM
RXF 393 renal
  TGI: > 100 µM
MOLT-4 leukemia
  TGI: > 100 µM
SNB-19 CNS
  TGI: 81.8 µM
HOP-62 NSCLC
  TGI: > 100 µM
SN12C renal
  TGI: > 100 µM
DMS 273 small cell lung
  TGI: > 100 µM
ACHN renal
  TGI: > 100 µM
DMS 114 small cell lung
  TGI: > 100 µM
LXFL 529 NSCLC
  TGI: > 100 µM
UO-31 renal
  TGI: 86.3 µM
RPMI-8226 leukemia
  TGI: > 100 µM
OVCAR-4 ovarian
  TGI: > 100 µM
M14 melanoma
  TGI: > 100 µM
IGROV1 ovarian
  TGI: > 100 µM
COLO 205 colon
  TGI: > 100 µM
HCT-116 colon
  TGI: 57.5 µM
LOX IMVI melanoma
  TGI: > 100 µM
UACC-62 melanoma
  TGI: > 100 µM
HT29 colon
  TGI: > 100 µM
XF 498 CNS
  TGI: > 100 µM
HCC-2998 colon
  TGI: > 100 µM
HCT-15 colon
  TGI: > 100 µM
KM12 colon
  TGI: > 100 µM
OVCAR-5 ovarian
  TGI: > 100 µM
A549 NSCLC
  TGI: > 100 µM
K-562 leukemia
  TGI: > 100 µM
EKVX NSCLC
  TGI: > 100 µM
SK-MEL-5 melanoma
  TGI: > 100 µM
DLD-1 colon
  TGI: > 100 µM
SNB-75 CNS
  TGI: 65.2 µM
SNB-78 CNS
  TGI: > 100 µM
TK-10 renal
  TGI: > 100 µM
SF-268 CNS
  TGI: > 100 µM
UACC-257 melanoma
  TGI: > 100 µM
SK-OV-3 ovarian
  TGI: > 100 µM
SW-620 colon
  TGI: > 100 µM

## Nc1nc(N)c(N=Nc2ccccc2)c(=O)[nH]1
CAKI-1 renal
  TGI: > 100 µM
M19-MEL melanoma
  TGI: > 100 µM
MALME-3M melanoma
  TGI: 69.6 µM
SK-MEL-28 melanoma
  TGI: 87.7 µM
SF-295 CNS
  TGI: > 100 µM
HOP-18 NSCLC
  TGI: > 100 µM
CCRF-CEM leukemia
  TGI: > 100 µM
OVCAR-3 ovarian
  TGI: > 100 µM
KM20L2 colon
  TGI: > 100 µM
NCI-H23 lung
  TGI: 93 µM
SF-539 CNS
  TGI: > 100 µM
NCI-H522 lung
  TGI: > 100 µM
U251 CNS
  TGI: > 100 µM
NCI-H226 lung
  TGI: > 100 µM
HL-60(TB) leukemia
  TGI: > 100 µM
HOP-92 NSCLC
  TGI: > 100 µM
SR leukemia
  TGI: > 100 µM
786-0 renal
  TGI: > 100 µM
OVCAR-8 ovarian
  TGI: > 100 µM
A498 renal
  TGI: > 100 µM
SK-MEL-2 melanoma
  TGI: > 100 µM
NCI-H460 lung
  TGI: > 100 µM
MOLT-4 leukemia
  TGI: > 100 µM
SNB-19 CNS
  TGI: > 100 µM
HOP-62 NSCLC
  TGI: > 100 µM
SN12C renal
  TGI: > 100 µM
DMS 273 small cell lung
  TGI: > 100 µM
ACHN renal
  TGI: 96.7 µM
DMS 114 small cell lung
  TGI: 71.2 µM
UO-31 renal
  TGI: > 100 µM
RPMI-8226 leukemia
  TGI: > 100 µM
OVCAR-4 ovarian
  TGI: > 100 µM
M14 melanoma
  TGI: > 100 µM
IGROV1 ovarian
  TGI: > 100 µM
COLO 205 colon
  TGI: > 100 µM
HCT-116 colon
  TGI: > 100 µM
LOX IMVI melanoma
  TGI: > 100 µM
UACC-62 melanoma
  TGI: 69.7 µM
HT29 colon
  TGI: > 100 µM
XF 498 CNS
  TGI: > 100 µM
HCC-2998 colon
  TGI: > 100 µM
HCT-15 colon
  TGI: > 100 µM
KM12 colon
  TGI: > 100 µM
OVCAR-5 ovarian
  TGI: > 100 µM
A549 NSCLC
  TGI: > 100 µM
K-562 leukemia
  TGI: > 100 µM
SK-MEL-5 melanoma
  TGI: > 100 µM
DLD-1 colon
  TGI: > 100 µM
SNB-75 CNS
  TGI: 23.7 µM
SNB-78 CNS
  TGI: 71.4 µM
TK-10 renal
  TGI: > 100 µM
SF-268 CNS
  TGI: > 100 µM
UACC-257 melanoma
  TGI: > 100 µM
SK-OV-3 ovarian
  TGI: > 100 µM
SW-620 colon
  TGI: > 100 µM
